Values of other authors as cited in patent US20030104981A1 (priority 1995, published 2003).

What was measured:
LB lymphoma cell = conditions: cited from earlier work
LB and IM-9 = conditions: cited from earlier work
[1] = assumed; cited from earlier work
[2] = poster presentation, 1992; cited from earlier work
IDE = IDE (Homo sapiens, UniProt P14735); conditions: cited from earlier work

Substance: A8 His B10 Glu B27 His (code name H2) insulin [Radoyka H2]
- mitogenic potency (literature) (LB lymphoma cell): most potent mitogen
- binding to LB and IM-9 (LB and IM-9): bound essentially irreversibly

Substance: des-(B26-B30)-[Glu-B^10; Tyr-B^25—NH2] insulin analogue
- activity, times more active than native insulin [1]: at least 20 times

Substance: B10 Asp insulin: B10 His replaced by Asp in native insulin
- mitogenic effect [2]: significantly increased mitogenic effect

Substance: rat insulin analogue at B16 Tyr→Asp replacement: engineered rat insulin analogue at B16 Tyr→Asp replacement (group in Geneva)
- susceptibility to cleavage by IDE (IDE): unchanged susceptibility to cleavage by IDE
